According to patent US10478485B2, “Methods and compositions to prevent or treat bacterial infections” (priority 2015, dated 2019):
≈ marks a conversion by molar mass, not a printed value.

How the values were obtained:
[1] = test system: multi-drug resistant (MDR) Acinetobacter baumannii clinical isolates; assay: Minimum inhibitory concentration (MIC) determination; type: cell-based
Experimental: PX-12 concentrations used in these experiments approximated the concentration reported “well tolerated” by mice (˜500 μg/mouse; 500 μg/mL for this experiment). […] Furthermore, this concentration was also bactericidal leading us to believe it may potentially be useful as a new antimicrobial compound for treating MDR Acinetobacter baumannii. (Bacterial concentrations used in presented studies ˜100× higher than recommended by CLSI standards)

[2] = test system: Acinetobacter baumannii; assay: SIgA breakdown / secretory component liberation by Acinetobacter baumannii (Western blot); type: cell-based; settings: for inhibition of SIgA reduction and SC liberation: 2 hours after incubation
Experimental: Acinetobacter baumannii was incubated with 50 μg/mL SIgA to examine breakdown of the immunoglobulin. Breakdown of SIgA by A. baumannii was observed by liberation of secretory component from dimeric IgA. Goat anti-human secretory component (free and bound) antibody was used to monitor this occurrence though Western blot. A mixture of A. baumannii strain Ci79 was prepared in three concentrations −10^7, 10^6, and 10^5 CFU/mL—to determine whether SIgA breakdown was dose dependent with respect to bacterial concentration FIG. 1A. […] Next, two competitive inhibitors of reductase enzymes targeting the thioredoxin fold (-C-X-X-C-) motif typically found in thiol-reductase enzymes (thioredoxin, glutathione, thioredoxin reductase, etc) were identified. The first, dithionitrobenzoic acid (Ellman's reagent) is often used as a colorimetric substrate to monitor thioredoxin activity as it produces a bright yellow color upon cleavage of the disulfide bond within the molecule. The second is PX-12. […] (Error bars represent ±SEM in all graphs; statistical differences determined by ANOVA with Dunnett correction; * significance p<0.01; ** p<0.001).

[3] = cited from earlier work
[4] = test system: A. baumannii strain Ci79; assay: Bacterial adherence to mouse intestinal sections; type: cell-based, Acinetobacter baumannii
Experimental: Intestinal sections were cut down one side to expose the inner lumen of the intestine and individually placed in suspensions of A. baumannii strain Ci79 (10^7 CFU/mL). The sections were incubated in this mixture for 30 minutes, washed twice in 250 volumes of sterile PBS and soaked in 500 volumes of PBS (volume of section ˜50-100 μL) for five minutes. The remaining bound bacteria were enumerated through homogenization of each section into single cell suspensions in 10 mL sterile PBS followed by dilution plating.

| SMILES | bacterial pellet size ([1]; 500 μg/mL) | MIC ([1]; Acinetobacter baumannii) | bactericidal effect ([1]; at 31.25 μg/mL) | bactericidal activity (low MIC combined with low MBC) ([1]; repeat MIC to CLSI standards, ~5×10^5 CFU/mL, 64 to 0.5 μg/mL) | time after which inhibition is overcome by the bacteria [2] | inhibition of SIgA reduction and SC liberation ([2]; 15 μg/mL) | SIgA breakdown by Acinetobacter baumannii ([2]; 18 μg/mL, up to 2 hours following treatment) | concentration reported well tolerated by mice [3] | bacterial adherence to intestinal sections ([4]; 18 μg/mL, sections from WT C57BL/6 mice) | reduction of bacterial attachment ([4]; WT intestinal sections as 100% control, Ci79 10^7 CFU/mL, 30 minutes) | SIgA breakdown by Acinetobacter baumannii after addition of inhibitor [2] | inhibition of SIgA reduction and SC liberation ([2]; 1 mM) | inhibition of SIgA reduction at 24 hours ([2]; 24 hours) |
| --- | --- | --- | --- | --- | --- | --- | --- | --- | --- | --- | --- | --- | --- |
| CCC(C)SSc1ncc[nH]1 (stereo not shown) [PX-12, 1-methylpropyl 2-imidazolyl disulfide] | visible decrease in bacterial pellet size | 31.2 µg/mL (≈ 166 µM) | bactericidal | bactericidal activity | about 12 hours | completely ablated | significantly reduced | ~500 μg/mouse | significantly inhibits | ~40% | – | – | – |
| O=C(O)c1cc(SSc2ccc([N+](=O)[O-])c(C(=O)O)c2)ccc1[N+](=O)[O-] [Ellman's reagent, dithionitrobenzoic acid] | – | – | – | – | – | – | – | – | – | – | significantly reduced | completely ablated | inhibition was still evident |
